Test results as given in patent publication US20080039531A1, “Compositions, and kits comprising targeted aldehyde or acetal protease inhibitor compounds for treating muscle disorders” (priority 2005, published 2008).
Values joined by “and” are separate entries in the source; they are usually repeats but may differ in a detail not shown here. Identical values can stand only once. Like-named read-outs stand apart in the source and are kept apart here.

Assays:
[1] = Uptake and conversion of CLA acetal in rat gastrocnemius muscle; type: in vivo
Description: This experiment was designed to measure the uptake of CLA acetal in rat gastrocnemius muscle and to detect conversion of CLA acetal to CLA as it occurs in rat muscle. […] At different times following administration of drug, each rat was sacrificed, the left and right gastrocnemius muscles were dissected from the rat, and the muscles were frozen by immersion in liquid nitrogen and storage in a −80° C. freezer.
The muscle tissues were thawed and homogenized using a blender.

[2] = Qualitative oral bioavailability of CLA acetal in the rat (plasma); settings: for Estimated Plasma Concentration of CLA aldehyde / Estimated Plasma Concentration of CLA acetal: rat plasma
Description: This experiment was designed to measure in a qualitative manner the oral bioavailability of CLA acetal in rats. Four Lewis strain normal male rats, 9 weeks of age were administered a single dose of 50 mg/kg of the acetate salt of the CLA acetal compound, using a single oral gavage. […] The blood samples were immediately centrifuged at 3000 rpm for 3-5 minutes to separate plasma from cells and the plasma and cells were frozen separately by immersion in liquid nitrogen and storage in a −20° C. freezer.
The aldehyde and acetal forms of CLA were then extracted from the plasma using a Bligh Dyer-type liquid phase extraction followed by solid-phase extraction using a reverse phase column. The relative amounts of CLA acetal and aldehyde were then measured using HPLC separation with mass spectrometric detection, using an electrospray ionization source and a Micromass Qtof detector.

mdx mice = settings: for Myofiber diameter (Gastrocnemis) / Myofiber diameter, Diaphragm: injected parenterally daily from one to two months
Description: CLA was injected parenterally daily at the indicated concentrations into mdx mice from one to two months. Mdx control mice were injected with saline alone. At two months, the animals were sacrificed and indicated muscles removed, fixed, and stained for myofiber diameter analysis.

[3] = rats
Description: In a pilot toxicology study, two groups of 2 male and 2 female Sprague-dawley rats each were administered intravenous bolus doses of 250 and 500 mg/kg CLA. […] In a larger, follow-up study (Table 11), Sprague-Dawley rats were administered several lower doses of CLA intravenously at 7-8 weeks of age. The rats were divided into 4 groups consisting of equal numbers of male and female rats. […] The vehicle consisted of Dulbecco's phosphate-buffered saline.

[4] = rats, various doses
calpain [5] = settings: rats, IP, muscle isolated after 2 hours
Description: An initial series of toxicology experiments was performed in rats to assess the effect of CLA at various doses, on animal viability. […] A series of experiments to examine the ability of CLA vs. leupeptin to decrease activated calpain levels and inhibit muscle wasting was conducted. In the experiment shown in Table 4, rats were utilized to assess the effect of IP injection of either leupeptin or CLA into the hind limb muscle on their ability to inhibit calpain activity. To this end, four rats were injected IP with either leupeptin or CLA. After 2 hours, the muscle was isolated, homogenized, and assayed for remaining calpain activity by the standard assay.

[6] = tested on: rat hind limb muscle (sciatic nerve denervation); settings: for % loss (muscle atrophy due to denervation): rat
Description: Denervation was carried out on one of the hind limb sciatic nerves of the rat. Denervation was allowed to proceed for 7 days. Either leupeptin or CLA was injected 2×/day in forelimb muscle for seven days. The non-denervated hind limb was used as the control. Leupeptin and/or CLA were injected into alternating forelimb muscles for a period of seven days after which, animals were sacrificed, muscles excised and weighed.

calpain [7] = settings: RD muscle cells
Source text: This study was designed to measure the effect of CLA, a calpain inhibitor, upon calpain activity inside living muscle cells. […] Full length alpha-II spectrin has a molecular weight of approximately 250 kilodaltons; upon cleavage by calpain, calpain-specific spectrin breakdown products with molecular weights of approximately 150 and 145 kilodaltons, respectively, are generated sequentially. Human RD muscle cells are a rhabdomyosarcoma muscle cell line that expresses OCTN2, a transporter for carnitine. By monitoring the reduction in spectrin breakdown products caused by calpain inhibition in RD muscle cells, it is possible to measure the potency of inhibitors according to the extent to which they reduce the appearance of calpain-specific spectrin breakdown products.
In the experiment, Rd muscle cells were incubated with either CLA or leupeptin for 1 hour. 1 nM maitotoxin was added to the cells to stimulate calcium influx and calpain activation. The cells were incubated for another 60 minutes. The cells were then lysed in phosphate buffer containing 1% Triton X-100 and a protease inhibitor cocktail. The lysed samples were centrifuged and the supernatants were collected. The protein concentration in each supernatant was measured using a standard assay. 20 micrograms of each sample was electrophoresed on a 4% Tris-glycine polyacrylamide gel. […]

porcine kidney calpain 2 = porcine kidney calpain 2 (Sus scrofa, UniProt I3LQD3); experiment: Enzymatic calpain assay with fluorogenic substrate; type: biochemical; settings: porcine kidney calpain 2, 37° C., 10 mM calcium chloride
porcine kidney calpain 2, sequence (P04574 whole entry): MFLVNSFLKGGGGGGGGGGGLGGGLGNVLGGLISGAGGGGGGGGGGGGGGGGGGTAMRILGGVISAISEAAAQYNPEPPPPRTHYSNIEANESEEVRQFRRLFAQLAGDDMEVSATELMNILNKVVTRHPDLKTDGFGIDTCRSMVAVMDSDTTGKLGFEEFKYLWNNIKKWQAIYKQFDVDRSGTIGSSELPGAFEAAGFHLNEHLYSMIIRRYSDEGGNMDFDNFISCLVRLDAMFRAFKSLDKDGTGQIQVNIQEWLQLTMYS
porcine kidney calpain 2, sequence (I3LQD3 entry or part of it): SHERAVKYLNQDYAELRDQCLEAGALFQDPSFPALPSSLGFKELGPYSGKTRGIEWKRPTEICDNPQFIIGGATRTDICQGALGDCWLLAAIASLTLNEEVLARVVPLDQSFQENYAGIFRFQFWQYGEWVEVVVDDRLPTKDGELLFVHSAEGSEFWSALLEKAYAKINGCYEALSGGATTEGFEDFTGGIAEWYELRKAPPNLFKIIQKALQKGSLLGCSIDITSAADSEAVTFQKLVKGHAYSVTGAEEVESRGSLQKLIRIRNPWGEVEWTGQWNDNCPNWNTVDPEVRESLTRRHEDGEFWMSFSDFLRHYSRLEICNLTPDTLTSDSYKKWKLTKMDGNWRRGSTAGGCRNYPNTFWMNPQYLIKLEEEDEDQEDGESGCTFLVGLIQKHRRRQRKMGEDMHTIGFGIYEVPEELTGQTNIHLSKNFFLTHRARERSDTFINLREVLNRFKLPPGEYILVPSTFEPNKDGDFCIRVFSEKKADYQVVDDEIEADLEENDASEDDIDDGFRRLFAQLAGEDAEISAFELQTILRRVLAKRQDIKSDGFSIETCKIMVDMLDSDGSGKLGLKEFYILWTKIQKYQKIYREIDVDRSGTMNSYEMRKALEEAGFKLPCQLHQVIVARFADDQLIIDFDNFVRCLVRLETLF
Source text: The α-carbon stereocenter adjacent to the aldehyde group of CLA can be prepared in a “natural” L or “unnatural” D configuration. It is known however that enolization of such aldehydes can easily occur during synthesis, storage, or administration of such peptide aldehydes to patients, with the result that the α-carbon stereocenter undergoes racemization. To investigate the relative biological activity of the optical isomers of CLA, the pure form of both the L-argininal diethyl […] diethyl acetal forms of CLA were prepared via the method described in Example 11 below using both L and D enantiomers of the […] starting materials. […] Slopes were calculated for the initial phase of each reaction and the ratios of velocities for each compound concentration (Vi) to the uninihibited reaction velocity (V0) were calculated, plotted, and fitted to a rectangular hyperbola using the program Kaleidagraph (Synergy software). […] An increase in enzyme activity appears to occur at intermediate concentrations of the D-isomer (Panel B.). This increase may be due to weak binding at an allosteric site that is not inhibitory the enzyme.

[8] = Conversion of CLA acetal to aldehyde using acid (HPLC); type: physicochemical; settings: 5 mg/mL in water
Description: Solutions of CLA diethyl acetal in water were prepared at a concentration of 5 mg/mL and the pH was adjusted to values shown in Table 8 using concentrated hydrochloric acid. Each solution was incubated at different times at room temperature. Samples were removed at each time point and quenched using basic phosphate buffer, yielding a final pH of 9. The quenched samples were analyzed using an Agilent 1100 HPLC system. The aldehyde was chromatographically separated from the acetal on a C18 reverse-phase HPLC column, using a linear gradient where the starting mobile phase was 0.1% trifluoroacetic acid in a 99:1 water:acetonitrile mixture and the final mobile phase was 0.1% trifluoroacetic acid in a 50:50 water:acetonitrile mixture. The absorbance at 220 nm was monitored, and the area of the peak corresponding to elution of the CLA diethyl acetal was computed.

[9] = Single-dose oral rat toxicology study of CLA acetal; type: in vivo, Sprague Dawley rats; settings: rats, oral gavage, 250, 1000, 2000 mg/kg, up to 24 hours after dosing
Description: Sprague Dawley rats were administered single doses of CLA acetal by oral gavage at 7-8 weeks of age. Each group received a single oral dose level of CLA acetal, ranging in amount from 0 to 2000 mg/kg. The vehicle consisted of Dulbecco's phosphate-buffered saline.

[10] = rat left gastrocnemius, 2 hours after oral 50 mg/kg CLA acetal acetate salt
[11] = rat right gastrocnemius, 6 hours after oral 50 mg/kg CLA acetal acetate salt
[12] = rat right gastrocnemius, 8 hours after oral 50 mg/kg CLA acetal acetate salt, one line per rat, 50 mg/kg
[13] = 45 minutes after single oral gavage of 50 mg/kg CLA acetal acetate salt, single rat

**Q.** Which “Muscle concentration of active drug” value [1, 10] does the source give for CC(C)C[C@H](NC(=O)CCC(=O)N[C@H](CC(=O)O)C[N+](C)(C)C)C(=O)N[C@H](C=O)CCCNC(=N)N.Cl.[Cl-] [CLA, aminocarnityl-succinyl-leucyl-argininal] here?
**A.** 124.6 ng per gram

**Q.** And the “Percent of drug present as the active form” value (from here on “Percent of drug present”) [1, 10]?
**A.** 76.9%

**Q.** And the “Muscle concentration of active drug” value [1, 11]?
**A.** 683.6 ng per gram

**Q.** What about the “Percent of drug present” value [1, 11] of the same compound?
**A.** 98.6%

**Q.** And the “Muscle concentration of active drug” value [1, 12]?
**A.** 758.4 ng per gram and 330.8 ng per gram

**Q.** What about the “Percent of drug present” value [1, 12] of the same compound?
**A.** 98.7% and 97.3%

**Q.** And the “Estimated Plasma Concentration of CLA aldehyde” value [2, 13]?
**A.** <20 ng/mL

**Q.** And the “Estimated Plasma Concentration of CLA aldehyde” value ([2]; 60 minutes after single oral gavage of 50 mg/kg CLA acetal acetate salt, one line per rat, listed as CLA aldehyde, 50 mg/kg)?
**A.** <20 ng/mL (2×) and 72 ng/mL

**Q.** And the “Myofiber diameter (Gastrocnemis)” value (mdx mice; 5 mg)?
**A.** 28.7 ± 7 mm

**Q.** And the “Myofiber diameter, Diaphragm” value (mdx mice; 5 mg)?
**A.** 25.1 ± 7.3 mm

**Q.** And the “Myofiber diameter (Gastrocnemis)” value (mdx mice; 10 mg)?
**A.** 30.6 ± 11 mm

**Q.** What about the “Myofiber diameter, Diaphragm” value (mdx mice; 10 mg) of the same compound?
**A.** 25.4 ± 7.3 mm

**Q.** What about the “effectiveness relative to leupeptin alone” value (mdx mice; retention of muscle size) of the same compound?
**A.** at least five to seven times more effective

**Q.** What about the lethality ([3]; intravenous bolus, 500 mg/kg) of the same compound?
**A.** lethal

**Q.** And the maximum tolerated dose ([3]; single intravenous dose)?
**A.** 200 mg/kg

**Q.** What about the “no adverse effect limit (NOAEL)” value ([3]; single intravenous dose) of the same compound?
**A.** 100 mg/kg

**Q.** What about the toxicity ([3]; single intravenous dose, 50 and 100 mg/kg) of the same compound?
**A.** No toxicity

**Q.** And the “toxic effect on animal viability” value [4]?
**A.** No toxic effect

**Q.** What about the “% inhibition of muscle calpain activity” value (calpain [5]; 14 μmoles) of the same compound?
**A.** 48%

**Q.** And the “% inhibition/μmole” value (calpain [5])?
**A.** 3.5%

**Q.** What about the “Fold (effectiveness per μmole relative to leupeptin)” value (calpain [5]) of the same compound?
**A.** 13.5

**Q.** What about the “% loss (muscle atrophy due to denervation)” value (from here on “% loss”) ([6]; 1.0 mg/kg injected 2x/day for seven days) of the same compound?
**A.** 5.2 ± 1%

**Q.** And the “% loss” value ([6]; 3.0 mg/kg injected 2x/day for seven days)?
**A.** <1.0%

**Q.** And the “% loss” value ([6]; 6.0 mg/kg injected 2x/day for seven days)?
**A.** <1.0%

**Q.** And the “health / toxic effect in denervation study” value ([6]; rats, seven days of injections)?
**A.** remained healthy without any apparent negative toxic effect

**Q.** And the “fold lower IC50 than leupeptin” value (calpain [7])?
**A.** approximately 200 fold

**Q.** Which IC50 (porcine kidney calpain 2; FIG. 7 Panel A) does the source give for CC(C)CC(NC(=O)CCC(=O)NC(CC(=O)[O-])C[N+](C)(C)C)C(=O)NC(C=O)CCCNC(=N)N [L-isomer of CLA] here?
**A.** 500 to 1000 nM

**Q.** For CC(C)CC(NC(=O)CCC(=O)NC(CC(=O)[O-])C[N+](C)(C)C)C(=O)NC(C=O)CCCNC(=N)N [D-isomer], which IC50 (porcine kidney calpain 2; FIG. 7 Panel B) is on record?
**A.** > 100000 nM

**Q.** With CC(=O)O.CCOC(OCC)[C@H](CCCNC(=N)N)NC(=O)[C@H](CC(C)C)NC(=O)CCC(=O)N[C@H](CC(=O)[O-])C[N+](C)(C)C [CLA acetal, aminocarnityl-succinyl-leucyl-argininal diethyl acetal] as the compound, how does the “Muscle concentration of prodrug” value [1, 10] read?
**A.** 37.4 ng per gram

**Q.** What about the “Muscle concentration of prodrug” value [1, 11] of the same compound?
**A.** 9.7 ng per gram

**Q.** What about the “Muscle concentration of prodrug” value [1, 12] of the same compound?
**A.** 10.3 ng per gram and 9.2 ng per gram

**Q.** And the “Estimated Plasma Concentration of CLA acetal” value [2, 13]?
**A.** 5,840 ng/mL

**Q.** What about the “Estimated Plasma Concentration of CLA acetal” value ([2]; 60 minutes after single oral gavage of 50 mg/kg CLA acetal acetate salt, one line per rat, 50 mg/kg) of the same compound?
**A.** 970 ng/mL and 8240 ng/mL and 51200 ng/mL

**Q.** And the oral absorption ([2]; rats, 50 mg/kg oral gavage)?
**A.** absorbed intact

**Q.** What about the Percent acetal remaining ([8]; pH = 0, room temperature, activation time 0 min) of the same compound?
**A.** 100.0%

**Q.** And the Percent acetal remaining ([8]; pH = 0, room temperature, activation time 5 min)?
**A.** 80.0%

**Q.** And the Percent acetal remaining ([8]; pH = 0, room temperature, activation time 15 min)?
**A.** 28.5%

**Q.** What about the Percent acetal remaining ([8]; pH = 0, room temperature, activation time 30 min) of the same compound?
**A.** 11.2%

**Q.** And the Percent acetal remaining ([8]; pH = 0, room temperature, activation time 45 min)?
**A.** 11.3%

**Q.** What about the Percent acetal remaining ([8]; pH = 0, room temperature, activation time 60 min) of the same compound?
**A.** 11.3%

**Q.** What about the Percent acetal remaining ([8]; pH = 0, room temperature, activation time 90 min) of the same compound?
**A.** 9.0%

**Q.** And the Percent acetal remaining ([8]; pH = 0, room temperature, activation time 120 min)?
**A.** 10.9%

**Q.** What about the Percent acetal remaining ([8]; pH = 0, room temperature, activation time 240 min) of the same compound?
**A.** 9.3%

**Q.** And the Percent acetal remaining ([8]; pH = 0, room temperature, activation time 1440 min)?
**A.** 9.1%

**Q.** And the Percent acetal remaining ([8]; pH = 1.0, room temperature, activation time 0 min)?
**A.** 100.0%

**Q.** And the Percent acetal remaining ([8]; pH = 1.0, room temperature, activation time 5 min)?
**A.** 100.6%

**Q.** What about the Percent acetal remaining ([8]; pH = 1.0, room temperature, activation time 15 min) of the same compound?
**A.** 97.3%

**Q.** And the Percent acetal remaining ([8]; pH = 1.0, room temperature, activation time 30 min)?
**A.** 92.2%

**Q.** And the Percent acetal remaining ([8]; pH = 1.0, room temperature, activation time 45 min)?
**A.** 86.9%

**Q.** What about the Percent acetal remaining ([8]; pH = 1.0, room temperature, activation time 60 min) of the same compound?
**A.** 81.7%

**Q.** What about the Percent acetal remaining ([8]; pH = 1.0, room temperature, activation time 90 min) of the same compound?
**A.** 72.7%

**Q.** And the Percent acetal remaining ([8]; pH = 1.0, room temperature, activation time 120 min)?
**A.** 64.8%

**Q.** What about the Percent acetal remaining ([8]; pH = 1.0, room temperature, activation time 240 min) of the same compound?
**A.** 42.2%

**Q.** And the Percent acetal remaining ([8]; pH = 1.0, room temperature, activation time 1440 min)?
**A.** 6.4%

**Q.** What about the “toxicity after single oral dose” value [9] of the same compound?
**A.** No evidence of toxicity
